Data taken from the NIST ThermoML archive (doi:10.1016/j.tca.2014.11.008).
± gives the expanded uncertainty stated by the source.

Details: Crystal; visual observation

O=C(O)c1ccsc1 [β-thiophenecarboxylic acid]
Normal melting temperature: 138.70 ± 1.3 °C
